The source of these data is US6914065B2, “Imidazo[1,2-C]pyrimidine derivatives as ligands for gaba receptors” (Merck Sharp & Dohme Ltd., priority 2000, dated 2005).

Usually melting point stands for the temperature, or range, at which the solid turns liquid.

`Cc1cc2ncc(-c3cccc(-c4ccccc4C#N)c3)n2cn1` [Example 1, 3′-(7-Methylimidazo[1,2-c]pyrimidin-3-yl)biphenyl-2-carbonitrile] showed a melting point of 119 °C.
